Test results: the NIST ThermoML archive (doi:10.1016/j.tca.2018.08.012)
± gives the expanded uncertainty stated by the source.

Conditions: DSC

Triple point temperature (Crystal) [K] | Triple point temperature (Crystal 1) [K] | Triple point temperature (Crystal 2) [K] | Structure (SMILES)
435.15 ± 10 | – | – | Cc1ccc2c(c1)OCN(c1ccc(Cc3ccc(N4COc5cc(C)ccc5C4)cc3)cc1)C2
– | 432.15 ± 10 | – | Cc1ccc2c(c1)CN(c1ccc(Cc3ccc(N4COc5ccc(C)cc5C4)cc3)cc1)CO2
– | 357.15 ± 10 | 328.15 ± 10 | c1ccc2c(c1)CN(c1ccc(Cc3ccc(N4COc5ccccc5C4)cc3)cc1)CO2 [bis(4-(2H-benzo[e][1,3]oxazin-3(4H)-yl)phenyl)methane]
– | 406.15 ± 10 | 390.15 ± 10 | Cc1cc(C)c2c(c1)CN(c1ccc(Cc3ccc(N4COc5c(C)cc(C)cc5C4)cc3)cc1)CO2
